Drug permeability data for five molecules are collected here from patent US5500416A, “Percutaneous absorption promoting agent and dermatologic preparation containing the same” (priority 1987, dated 1996).

The structures appear in SMILES notation.

In this data set the test system is enucleated skin of a hairless mouse. In words: Drug permeability test by in vitro diffusion cell. Format: in vitro ADME. The following applies: pH 7.2. The protocol:
A drug permeability test was conducted for amine oxide, which is the product of the present invention.
Pharmaceutical samples comprising the following composition were prepared.
For an evaluation of the percutaneous absorption promoting effect of a drug with the test substance, a drug permeability test was conducted by in vitro diffusion cell, using the enucleated skin of a hairless mouse. As the diffusion cell device, a vertical film type 2-compartment cell with a diffusion area of 2 cm^2 was employed. The whole skin layer at the back of a 10 to 15 weeks old male hairless mouse was enucleated and mounted on a diffusion cell. In the cell compartment on the medicament sample side, 2 ml of a medicament sample was placed, and 2 ml of a phosphate buffer phisiological saline (pH 7.2) was placed in the cell compartment on the receptor side, and the whole cell maintained at 32° C. in a thermostat tank while gently stirring both phases. After 24 hours, the receptor solution was sampled and the amount of the drug permeated by high performance chromatography to the receptor side quantitated.

The molecule `CCCCCCCCCCCCCCCCCCCCCC[N+](C)(C)[O-]` [Example 5-2, Dimethylbehenylamine oxide] yielded a Drug permeability of 28.6%.
Under “Table 5-1, hydroquinone 1.0%, test substance 0.1%, ethanol 20%, 24 hours, 32° C.”, `CCCCCCCCCCCC[N+](C)(C)[O-]` [Example 5-4, Dimethyllaurylamine oxide] returned a Drug permeability of 9.4%.
`CCCCCCCCCCCCCCCCCC[N+](C)(C)[O-]` [Example 5-1, Dimethylstearylamine oxide]: the Drug permeability was determined as 44.0%.
Same read-out and setting: with `CCCCCCCCCCCCCC[N+](C)(C)[O-]` [Example 5-5, Dimethylmyristylamine oxide] the figure was 11.8%; with `CCCCCCCCCCCCCCCCCC[N+]([O-])(CCO)CCO` [Example 5-3, Dihyroxyethylstearylamine oxide], 30.5%.
